pEC50: −log10 of the molar value. Like-named read-outs stand apart in the source and are kept apart here.
Key:
D. immitis Slo-1 = D. immitis Slo-1 (Dirofilaria immitis, UniProt I0DFK5); test: D. immitis Slo-1 - action at a recombinant D. immitis cell line (membrane potential, FLIPR); format: cell-based
[1] = system: H. contortus and/or T. colubriformis; test: In vivo assay 3: gastro intestinal nematodes H. contortus and T. colubriformis in jirds; settings: jirds (Meriones unguiculatus), at ≤1.0 mg/kg intraperitoneal, treated once on Day 6 after infection
Protocol: In Vivo Assay 3: Gastro Intestinal Nematodes of H. contortus (Haemonchus contortus) and T. colubriformis (Trichostrongylus colubriformis)
Jirds (Meriones unguiculatus), immunosuppressed by administration of rodent feed containing hydrocortisone 21-acetate, were experimentally infected with third instar larvae each of T. colubriformis and H. contortus by oral gavage and were treated once orally or intraperitoneally with the formulated test compound on Day 6 after infection. Three days after treatment, jirds were euthanized and dissected to recover H. contortus from stomach and T. colubriformis from the small intestine. Efficacy is expressed as a % reduction in worm numbers in comparison with a placebo treated group, using the Abbot's formula.

A. viteae = settings: jirds (Meriones unguiculatus), at ≤25.0 mg/kg per oral, treated once, necropsy 12 weeks after infection
Description: Jirds (Meriones unguiculatus), experimentally infected with infective A. viteae larvae via subcutaneous injection were subsequently treated once with the formulated test compound by oral gavage or intraperitoneally. At necropsy 12 weeks after infection, efficacy was expressed as a % reduction in worm numbers in comparison with the placebo treated group, using the Abbot's formula.

Chain of D. immitis Slo-1 (I0DFK5 1-1119): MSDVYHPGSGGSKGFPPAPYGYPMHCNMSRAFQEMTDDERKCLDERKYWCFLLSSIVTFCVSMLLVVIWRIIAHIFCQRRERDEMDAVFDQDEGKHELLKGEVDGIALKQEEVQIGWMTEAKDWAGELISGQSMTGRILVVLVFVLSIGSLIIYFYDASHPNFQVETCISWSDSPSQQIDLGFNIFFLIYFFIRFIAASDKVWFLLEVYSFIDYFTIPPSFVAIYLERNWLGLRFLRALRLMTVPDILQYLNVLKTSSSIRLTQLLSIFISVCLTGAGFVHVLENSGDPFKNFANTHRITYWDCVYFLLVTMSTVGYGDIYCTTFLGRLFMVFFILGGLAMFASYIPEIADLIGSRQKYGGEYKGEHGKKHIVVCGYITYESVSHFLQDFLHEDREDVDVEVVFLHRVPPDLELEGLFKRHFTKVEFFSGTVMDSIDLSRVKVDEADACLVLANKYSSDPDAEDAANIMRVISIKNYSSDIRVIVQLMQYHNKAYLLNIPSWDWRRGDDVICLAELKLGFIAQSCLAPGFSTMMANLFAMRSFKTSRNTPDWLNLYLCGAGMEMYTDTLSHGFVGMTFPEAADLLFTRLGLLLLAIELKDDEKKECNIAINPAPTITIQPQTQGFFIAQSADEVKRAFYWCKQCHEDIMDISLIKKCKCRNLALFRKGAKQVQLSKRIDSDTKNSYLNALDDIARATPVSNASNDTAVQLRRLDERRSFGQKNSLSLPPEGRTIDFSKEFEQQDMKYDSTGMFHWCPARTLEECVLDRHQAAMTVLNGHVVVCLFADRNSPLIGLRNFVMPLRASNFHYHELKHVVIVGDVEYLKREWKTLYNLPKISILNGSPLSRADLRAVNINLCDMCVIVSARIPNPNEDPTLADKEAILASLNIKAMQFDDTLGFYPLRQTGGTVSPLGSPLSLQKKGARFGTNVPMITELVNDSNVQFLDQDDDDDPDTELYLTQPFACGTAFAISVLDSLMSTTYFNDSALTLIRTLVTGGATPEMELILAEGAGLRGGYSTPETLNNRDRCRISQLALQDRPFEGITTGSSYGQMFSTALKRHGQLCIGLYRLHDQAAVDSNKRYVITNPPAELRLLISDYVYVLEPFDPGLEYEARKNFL

SMILES	pEC50 (D. immitis Slo-1)	activity (% reduction in worm numbers) [1] [%]	EC50 (D. immitis Slo-1; read-out: pE50, stable CHO cell line expressing D. immitis Slo-1, voltage sensitive dye, upper limit in μM) [µM]	activity (% reduction in worm numbers) (A. viteae) [%]
O=C(N[C@H]1CCOc2ccccc21)c1cnc2c(-c3cc(F)cc(F)c3F)c(F)ccc2c1[C@H]1CCOC1 [Example 9, N-[(4S)-3,4-dihydro-2H-1-benzopyran-4-yl]-7-fluoro-4-(oxolan-(3R)-yl)-8-(2,3,5-trifluorophenyl) quinoline-3-carboxamide]	8.00 to 9.00	100	–	–
O=C(N[C@H]1CCOc2ccccc21)c1cnc2c(-c3cc(F)cc(F)c3F)c(F)ccc2c1[C@@H]1CCOC1 [Example 8, N-[(4S)-3,4-dihydro-2H-1-benzopyran-4-yl]-7-fluoro-4-(oxolan-(3S)-yl)-8-(2,3,5-trifluorophenyl) quinoline-3-carboxamide]	8.00 to 9.00	100	–	–
O=C(N[C@H]1CCOc2ccccc21)c1cnc2c(-c3cc(F)cc(F)c3F)c(F)ccc2c1C1CCOC1 (stereo partly drawn) [Example 7, N-[(4S)-3,4-dihydro-2H-1-benzopyran-4-yl]-7-fluoro-4-(oxolanyl)-8-(2,3,5-trifluorophenyl) quinoline-3-carboxamide]	8.00 to 9.00	–	–	–
O=C(N[C@H]1CCOc2ccccc21)c1cnc2c(-c3cc(F)cc(F)c3F)c(F)ccc2c1C1CS(=O)(=O)C1 [Example 3, N-[(4S)-3,4-dihydro-2H-chromen-4-yl]-4-(1,1-dioxidothietan-3-yl)-7-fluoro-8-(2,3,5-trifluorophenyl) quinoline-3-carboxamide]	7.00 to 8.00	–	–	–
O=C(N[C@H]1CCOc2ccccc21)c1cnc2c(-c3cc(F)cc(F)c3F)c(F)ccc2c1C1C[S+]([O-])C1 (single isomer, unassigned) [Example 6]	–	–	0.1 to 1	–
O=C1CC(c2c(C(=O)N[C@H]3CCOc4ccccc43)cnc3c(-c4cc(F)cc(F)c4F)c(F)ccc23)C1 [Example 1, N-[(4S)-3,4-dihydro-2H-chromen-4-yl]-7-fluoro-4-(3-oxocyclobutyl)-8-(2,3,5-trifluorophenyl) quinoline-3-carboxamide]	8.00 to 9.00	100	–	100
O=C(N[C@H]1CCOc2ccccc21)c1cnc2c(-c3cc(Cl)cc(Cl)c3)c(F)ccc2c1N1CCOC2CC21 (stereo partly drawn) [Example 13, 4-(2-oxa-5-azabicyclo[4.1.0]heptan-5-yl)-N—((S)-chroman-4-yl)-8-(3,5-dichlorophenyl)-7-fluoroquinoline-3-carboxamide]	8.00 to 9.00	–	–	–
O=C(N[C@H]1CCOc2ccccc21)c1cnc2c(-c3cc(F)cc(F)c3F)c(F)ccc2c1[C@H]1C[C@H](F)C1 [Example 15, N—((S)-chroman-4-yl)-7-fluoro-4-((1R,3S)-3-fluorocyclobutyl)-8-(2,3,5-trifluorophenyl) quinoline-3-carboxamide]	8.00 to 9.00	100	–	–
N=S1(=O)CC(c2c(C(=O)N[C@H]3CCOc4ccccc43)cnc3c(-c4cc(F)cc(F)c4F)c(F)ccc23)C1 (stereo partly drawn) [Example 10, N-[(4S)-3,4-dihydro-2H-chromen-4-yl]-7-fluoro-4-(1-imino-1-oxido-1lambda^4-thietan-3-yl)-8-(2,3,5-trifluorophenyl) quinoline-3-carboxamide]	8.00 to 9.00	100	–	–
O=C1CN(c2c(C(=O)N[C@H]3CCOc4ccccc43)cnc3c(-c4cc(F)cc(F)c4F)c(F)ccc23)CCN1 [Example 16, N—((S)-chroman-4-yl)-7-fluoro-4-(3-oxopiperazin-1-yl)-8-(2,3,5-trifluorophenyl) quinoline-3-carboxamide]	–	100	–	–
O=C(N[C@H]1CCOc2ccccc21)c1cnc2c(-c3cc(F)cc(F)c3F)c(F)ccc2c1C1C[S+]([O-])C1 (single isomer, unassigned) [Example 5]	–	100	–	–

Source: US20250129094A1, “NEW QUINOLINE DERIVATIVES” (ELANCO ANIMAL HEALTH GMBH, priority 2021, published 2025)
